# Experimental data published in PMC11889359, “Site-Specific Competitive Kinase Inhibitor Target Profiling Using Phosphonate Affinity Tags” (Molecular & Cellular Proteomics : MCP, 2025).
# Read-outs that look alike come from different tables or passages of the source.
# Experiments:
# EphB4 = tested on: EphB4; set-up: method as in PMID 20803239; conditions: cellular autophosphorylation; cited from earlier work
# EphA2 = molecular target: T1, EphA2 (Homo sapiens, UniProt P29317); assay: Competitive site-specific PhosID-ABPP with XO44 in intact A549 cells; format: binding; conditions: apparent IC50, 3 h inhibitor then 25 μM XO44 4 h
# T1 construct: endogenous in cells; host or cells: cultured cells treated intact (A549 per the earlier reading)
# T1 sequence (P29317 24-976): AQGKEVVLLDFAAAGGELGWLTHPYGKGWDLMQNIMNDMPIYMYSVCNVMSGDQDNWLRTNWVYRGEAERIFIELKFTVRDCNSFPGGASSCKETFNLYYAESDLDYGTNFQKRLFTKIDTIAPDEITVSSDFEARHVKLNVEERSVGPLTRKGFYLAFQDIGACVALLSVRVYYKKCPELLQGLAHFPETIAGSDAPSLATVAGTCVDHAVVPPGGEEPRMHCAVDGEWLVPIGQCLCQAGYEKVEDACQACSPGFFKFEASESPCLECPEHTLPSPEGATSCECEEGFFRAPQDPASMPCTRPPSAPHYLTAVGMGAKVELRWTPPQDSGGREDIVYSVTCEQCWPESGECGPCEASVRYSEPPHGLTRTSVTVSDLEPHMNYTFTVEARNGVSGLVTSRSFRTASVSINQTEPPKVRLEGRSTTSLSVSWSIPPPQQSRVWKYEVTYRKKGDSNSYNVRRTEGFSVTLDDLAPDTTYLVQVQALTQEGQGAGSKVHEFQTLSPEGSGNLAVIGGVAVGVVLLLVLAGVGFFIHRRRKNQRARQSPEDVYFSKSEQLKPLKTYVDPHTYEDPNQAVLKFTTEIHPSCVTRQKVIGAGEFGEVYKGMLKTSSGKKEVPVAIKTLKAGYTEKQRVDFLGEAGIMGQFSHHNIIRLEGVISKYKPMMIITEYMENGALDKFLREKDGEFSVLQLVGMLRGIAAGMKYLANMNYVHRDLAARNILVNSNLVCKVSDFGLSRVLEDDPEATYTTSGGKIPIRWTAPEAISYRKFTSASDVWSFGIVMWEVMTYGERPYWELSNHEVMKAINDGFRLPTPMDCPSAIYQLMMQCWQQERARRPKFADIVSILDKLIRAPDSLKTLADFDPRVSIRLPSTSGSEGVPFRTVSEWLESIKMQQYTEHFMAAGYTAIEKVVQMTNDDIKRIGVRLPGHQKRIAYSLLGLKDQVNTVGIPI
# Description: (§1) 1e^6 cells were plated in 15 cm plates (Greiner) 3 days before treatment and kept in a humidified atmosphere with 5% CO2 at 37 °C. The growth medium was replaced by 10 ml treatment [DMEM with 0.5% FBS and 100 units/ml PS supplemented with the corresponding concentration of NVP-BHG712 (Sigma-Aldrich) or DMSO] and incubated at 37 °C, 5% CO2 for 3 h. Then, 10 μl 25 mM XO44 (PF-6808472, Sigma-Aldrich) was added directly to the medium and swirled to enable dissolution. Subsequently, the cells were incubated at 37 °C, 5% CO2 for 4 h. The samples for Supplemental Fig. S1 were generated by directly incubating with 25 μM XO44-containing growth medium for 4 h.
# (§2) After treatment, the cells were washed with ice-cold DPBS and harvested using a cell scraper in 1 ml ice-cold DPBS. Then, the cell suspension was spun down at 2000g for 1 min, and the supernatant was aspirated. The cell pellet was snap-frozen in liquid nitrogen and stored at −80 °C for later use.
# (§3) Cell pellets were lysed in 500 μl lysis buffer per 15 cm plate of cells, consisting of 50 mM Hepes (Sigma-Aldrich, pH 7.5), 0.5% NP-40 (Applichem), 0.2% SDS (Gen-Apex), 2 mM MgCl2 (Sigma-Aldrich), 10 mM NaCl (Merck), 1× protease inhibitor cocktail (Roche), and 0.5 μl/ml Benzonase (Millipore). Cell lysates were incubated at room temperature for 15 min to allow DNA cleavage. Cell debris and DNA were spun down for 30 min at 20,567g at 16 °C. The supernatant was collected, and the protein concentration was determined by a bicinchoninic acid assay (Thermo Fisher Scientific).
# (§4) The copper(I)-catalyzed azide-alkyne cycloaddition (CuAAC) was performed on cellular lysates in 2 M urea (Merck) in 1× 50 mM Hepes (pH 7.5). CuAAC components were added in the following order: 5 mM tris(3-hydroxypropyltriazolylmethyl)amine (Lumiprobe), 2.5 mM CuSO4 5·H2O (Sigma-Aldrich), 500 μM phosphonate-azide (prepared as described in van Bergen et al., 2023 ([28])), and 25 mM sodium ascorbate (Sigma-Aldrich). Samples were incubated for 2 h at room temperature while rotating. Methanol–chloroform precipitation was performed to remove the CuAAC components, and the air-dried pellets were resuspended in 8 M urea and sonicated in a bioruptor (Diagenode) with the high amplitude setting for 10 min with cycles of 30 s on and 30 s off.
# (§5) Clicked and dissolved protein samples were diluted to 4M urea with 50 mM ammonium bicarbonate (pH 8, AmBic, Sigma-Aldrich). The proteins were reduced with 4 mM DTT (Sigma-Aldrich) for 60 minutes at room temperature and alkylated in the dark using 8 mM iodoacetamide (Sigma-Aldrich) for 30 min. Residual iodoacetamide was quenched by adding DTT to a final concentration of 4 mM.
# (§6) Next, samples were diluted 2× with 50 mM AmBic and digested with LysC (1:75 enzyme to protein ratio, Wako) for 4 h at 37 °C. Finally, proteins were digested overnight using Trypsin (1:50, enzyme to protein ratio, Sigma-Aldrich) at 37 °C. Proteolysis with chymotrypsin was performed similarly to the trypsin digestion, only replacing both proteolytic enzymes with α-chymotrypsin (bovine, 1:75, enzyme to protein ratio, Sigma-Aldrich) overnight at 37 °C. Digested material was desalted using 3 cc C18 Seppak cartridges (Waters) and air dried using a vacuum centrifuge.
# (§7) For the digestion with pepsin, protease incubation (Porcine, 1:50, enzyme to protein ratio, Sigma-Aldrich) was performed for 4 h at 37 °C in 40 mM HCl (pH 2). Digested material was directly desalted using 3 cc C18 Seppak cartridges and air dried using a vacuum centrifuge.
# (§8) Samples were dephosphorylated prior to immobilized metal affinity chromatography (IMAC) enrichment. Desalted peptides were dissolved in 1× rCutSmart buffer (pH 8, New England BioLabs) and incubated with 50 units of alkaline phosphatase (calf intestinal, QuickCIP, New England BioLabs) overnight at 37 °C while shaking. After dephosphorylation, all peptides were again desalted using 3 cc C18 Seppak cartridges and air-dried using a vacuum centrifuge. […]
# [1] = molecular target: T2, proto-oncogene tyrosine-protein kinase src (SRC) (Homo sapiens, UniProt P12931); assay: as above; format: binding; conditions: 0.1 nM to 25 µM inhibitor, trypsin and pepsin
# T2 construct: endogenous in cells; host or cells: cultured cells treated intact (A549 per the earlier reading)
# Description: as §1, §2, §3, §4, §5, §6, §7, §8
# [2] = molecular target: T3, epithelial discoidin domain-containing receptor 1 (DDR1) (Homo sapiens, UniProt Q08345); assay: as above; format: binding; conditions: apparent IC50, pepsin-based analysis, n = 3, read-out: IC50 DDR1;K655
# T3 construct: endogenous in cells; host or cells: cultured cells treated intact (A549 per the earlier reading)
# T3 sequence (Q08345 19-913): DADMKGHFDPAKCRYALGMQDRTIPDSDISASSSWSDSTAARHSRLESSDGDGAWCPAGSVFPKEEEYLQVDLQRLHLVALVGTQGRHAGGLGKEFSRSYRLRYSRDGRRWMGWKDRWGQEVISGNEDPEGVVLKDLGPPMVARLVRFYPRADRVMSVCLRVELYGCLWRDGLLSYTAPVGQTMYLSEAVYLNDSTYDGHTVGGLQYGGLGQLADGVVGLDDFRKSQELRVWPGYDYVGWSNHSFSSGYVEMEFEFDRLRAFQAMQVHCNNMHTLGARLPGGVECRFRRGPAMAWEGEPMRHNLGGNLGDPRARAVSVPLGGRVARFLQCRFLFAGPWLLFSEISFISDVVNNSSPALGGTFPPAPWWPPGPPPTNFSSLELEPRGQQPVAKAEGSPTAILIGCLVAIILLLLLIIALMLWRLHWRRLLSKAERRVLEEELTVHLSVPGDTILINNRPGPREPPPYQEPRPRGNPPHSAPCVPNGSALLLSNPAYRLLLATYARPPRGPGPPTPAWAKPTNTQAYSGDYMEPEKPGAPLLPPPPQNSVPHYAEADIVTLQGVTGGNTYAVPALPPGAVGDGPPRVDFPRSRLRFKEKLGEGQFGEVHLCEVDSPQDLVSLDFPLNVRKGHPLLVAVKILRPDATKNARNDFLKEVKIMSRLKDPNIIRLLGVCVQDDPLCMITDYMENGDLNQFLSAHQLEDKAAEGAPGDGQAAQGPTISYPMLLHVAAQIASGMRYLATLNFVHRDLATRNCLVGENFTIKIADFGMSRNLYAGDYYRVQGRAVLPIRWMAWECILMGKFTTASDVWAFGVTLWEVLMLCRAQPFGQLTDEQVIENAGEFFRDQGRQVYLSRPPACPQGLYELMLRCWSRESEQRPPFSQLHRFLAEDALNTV
# Description: as §1, §2, §3, §4, §5, §6, §7, §8
# MAP3K20 = molecular target: T4, MAP3K20 (Homo sapiens, UniProt Q9NYL2); assay: as above; format: binding; conditions: apparent IC50, unique peptide, n = 3, read-out: IC50 MAP3K20;K45
# T4 construct: endogenous in cells; host or cells: cultured cells treated intact (A549 per the earlier reading)
# Description: as §1, §2, §3, §4, §5, §6, §7, §8
# JAK1 = molecular target: T5, JAK1 (Homo sapiens, UniProt P23458); assay: as above; format: binding; conditions: 0.1 nM to 25 µM inhibitor, trypsin and pepsin
# T5 construct: endogenous in cells; host or cells: cultured cells treated intact (A549 per the earlier reading)
# T5 sequence (P23458 whole entry): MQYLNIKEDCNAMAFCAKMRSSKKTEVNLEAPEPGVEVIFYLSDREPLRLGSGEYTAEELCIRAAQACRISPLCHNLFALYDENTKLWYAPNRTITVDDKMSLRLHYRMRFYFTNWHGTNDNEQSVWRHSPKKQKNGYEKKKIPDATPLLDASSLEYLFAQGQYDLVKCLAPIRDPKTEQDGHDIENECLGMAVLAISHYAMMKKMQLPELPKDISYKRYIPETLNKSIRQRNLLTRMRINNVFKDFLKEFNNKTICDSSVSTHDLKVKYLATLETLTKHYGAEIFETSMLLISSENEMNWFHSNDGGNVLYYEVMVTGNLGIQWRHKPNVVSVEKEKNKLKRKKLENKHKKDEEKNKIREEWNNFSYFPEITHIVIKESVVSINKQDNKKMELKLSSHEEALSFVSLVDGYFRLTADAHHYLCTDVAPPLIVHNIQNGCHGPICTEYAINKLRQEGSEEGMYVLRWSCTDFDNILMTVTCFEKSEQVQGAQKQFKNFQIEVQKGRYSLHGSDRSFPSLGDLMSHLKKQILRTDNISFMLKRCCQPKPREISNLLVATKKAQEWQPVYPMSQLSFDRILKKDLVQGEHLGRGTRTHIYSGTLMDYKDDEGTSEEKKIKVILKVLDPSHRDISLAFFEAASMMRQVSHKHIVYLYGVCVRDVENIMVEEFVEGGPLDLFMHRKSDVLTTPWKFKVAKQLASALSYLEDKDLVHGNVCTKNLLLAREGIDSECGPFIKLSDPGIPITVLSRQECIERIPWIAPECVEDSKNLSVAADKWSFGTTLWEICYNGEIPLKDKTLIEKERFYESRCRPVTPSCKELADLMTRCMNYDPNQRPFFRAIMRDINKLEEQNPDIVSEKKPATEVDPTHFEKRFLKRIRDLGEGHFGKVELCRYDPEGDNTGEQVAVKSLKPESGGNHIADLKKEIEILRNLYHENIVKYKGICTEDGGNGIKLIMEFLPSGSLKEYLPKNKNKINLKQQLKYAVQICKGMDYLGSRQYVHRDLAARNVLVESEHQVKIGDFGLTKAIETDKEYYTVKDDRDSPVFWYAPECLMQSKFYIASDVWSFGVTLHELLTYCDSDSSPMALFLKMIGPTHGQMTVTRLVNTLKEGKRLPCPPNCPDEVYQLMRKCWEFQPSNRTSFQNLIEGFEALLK
# Description: as §1, §2, §3, §4, §5, §6, §7, §8
# [3] = molecular target: T6, inosine-5′-monophosphate dehydrogenase 2 (IMPDH2) (Homo sapiens, UniProt P12268); assay: as above; format: binding; conditions: apparent IC50, competition with XO44 on lysine 450, n = 3, read-out: IC50 IMPDH2;K450
# T6 construct: endogenous in cells; host or cells: cultured cells treated intact (A549 per the earlier reading)
# T6 sequence (P12268 2-514 limits assumed): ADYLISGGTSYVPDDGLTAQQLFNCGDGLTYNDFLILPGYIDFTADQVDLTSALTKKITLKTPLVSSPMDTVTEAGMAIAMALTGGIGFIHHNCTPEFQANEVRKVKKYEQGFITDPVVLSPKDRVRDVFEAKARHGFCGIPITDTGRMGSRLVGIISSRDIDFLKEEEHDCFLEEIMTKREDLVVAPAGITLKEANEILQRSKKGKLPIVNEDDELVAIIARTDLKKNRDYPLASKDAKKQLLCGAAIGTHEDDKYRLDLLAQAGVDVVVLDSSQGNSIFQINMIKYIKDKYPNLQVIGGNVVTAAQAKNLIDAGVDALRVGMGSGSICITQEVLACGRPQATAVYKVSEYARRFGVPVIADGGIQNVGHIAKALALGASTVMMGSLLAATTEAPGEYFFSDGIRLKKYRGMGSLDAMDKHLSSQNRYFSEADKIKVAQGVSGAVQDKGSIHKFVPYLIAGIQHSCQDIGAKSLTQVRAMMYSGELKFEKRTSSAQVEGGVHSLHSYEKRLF
# Description: as §1, §2, §3, §4, §5, §6, §7, §8
# [4] = molecular target: T7, cyclin G–associated kinase (GAK) (Homo sapiens, UniProt O14976); assay: as above; format: binding; conditions: apparent IC50, lysine 69 in ATP pocket, n = 3, read-out: IC50 GAK;K69
# T7 construct: endogenous in cells; host or cells: cultured cells treated intact (A549 per the earlier reading)
# T7 sequence (O14976 1-1311): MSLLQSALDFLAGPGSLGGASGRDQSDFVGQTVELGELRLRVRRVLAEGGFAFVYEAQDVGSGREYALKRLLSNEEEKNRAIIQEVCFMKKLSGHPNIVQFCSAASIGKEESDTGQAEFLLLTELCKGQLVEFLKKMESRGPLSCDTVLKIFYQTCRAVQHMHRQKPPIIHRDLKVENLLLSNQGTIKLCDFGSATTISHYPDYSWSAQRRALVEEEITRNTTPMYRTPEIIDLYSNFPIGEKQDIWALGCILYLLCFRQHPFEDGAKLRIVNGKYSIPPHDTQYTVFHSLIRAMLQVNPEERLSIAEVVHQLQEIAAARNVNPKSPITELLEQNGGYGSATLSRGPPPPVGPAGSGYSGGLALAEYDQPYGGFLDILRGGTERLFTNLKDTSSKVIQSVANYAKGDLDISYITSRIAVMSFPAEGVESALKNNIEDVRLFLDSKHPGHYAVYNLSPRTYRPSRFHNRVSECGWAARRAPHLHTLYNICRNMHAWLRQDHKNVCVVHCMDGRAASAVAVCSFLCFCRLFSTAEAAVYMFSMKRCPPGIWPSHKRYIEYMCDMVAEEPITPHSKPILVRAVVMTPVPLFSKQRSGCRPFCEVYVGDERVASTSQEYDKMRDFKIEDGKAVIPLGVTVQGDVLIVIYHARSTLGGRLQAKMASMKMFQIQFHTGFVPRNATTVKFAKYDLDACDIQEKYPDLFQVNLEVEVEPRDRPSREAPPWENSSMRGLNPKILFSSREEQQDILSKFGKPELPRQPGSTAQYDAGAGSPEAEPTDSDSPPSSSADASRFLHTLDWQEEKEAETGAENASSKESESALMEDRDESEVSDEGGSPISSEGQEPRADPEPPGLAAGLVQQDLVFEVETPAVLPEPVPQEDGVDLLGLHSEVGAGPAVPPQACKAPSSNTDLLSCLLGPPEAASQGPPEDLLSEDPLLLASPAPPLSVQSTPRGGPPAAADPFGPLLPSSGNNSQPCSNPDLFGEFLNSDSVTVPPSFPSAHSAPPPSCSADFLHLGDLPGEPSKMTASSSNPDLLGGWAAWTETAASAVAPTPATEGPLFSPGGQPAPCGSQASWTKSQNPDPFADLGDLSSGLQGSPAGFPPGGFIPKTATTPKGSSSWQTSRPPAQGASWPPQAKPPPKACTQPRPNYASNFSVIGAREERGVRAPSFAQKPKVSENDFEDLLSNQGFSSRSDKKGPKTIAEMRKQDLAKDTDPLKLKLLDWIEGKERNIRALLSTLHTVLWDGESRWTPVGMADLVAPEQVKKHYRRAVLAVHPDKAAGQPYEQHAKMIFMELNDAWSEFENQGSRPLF
# Description: as §1, §2, §3, §4, §5, §6, §7, §8
substance,measurement,setting,value
NVP-BHG712,IC50,EphB4,25 nM
same,IC50,"EphA2; pepsin, n = 3, read-out: IC50 EphA2;K646, peptic analysis",20.5 nM
same,IC50,"EphA2; trypsin, n = 3, read-out: IC50 EphA2;K646, tryptic analysis",17 nM
same,"Interaction with ATP-binding pocket, SRC;K298 signal across the concentration range",[1],do not interact
same,IC50,[2],2.1 nM
same,IC50,MAP3K20,2900 nM
same,"Interaction with ATP-binding pocket, JAK1;K908 signal across the concentration range",JAK1,do not interact
same,IC50,[3],9600 nM
same,IC50,[4],9400 nM
